# “And” between values parts separate entries of the source, which are not always exact repeats. Identical values can stand only once. Like-named read-outs stand apart in the source and are kept apart here.
# Legend:
# in vivo = conditions: daily po bolus (gastric gavage) for 6 days
# Description: No further dose escalations were used because of the increased risk of pulmonary aspiration with larger drug volumes (≥2000 mg/kg/d).
# [1] = system: HT-29, HCT 116, U251 and U87 xenografts; experiment: Tumor regrowth assay of response to RT; assay type: in vivo, athymic mice
# [2] = Plasma PK of once daily po IPdR x 28 days; assay type: in vivo, Fischer-344 rats
# Text: Cancer research. 1994; 54(10):2695-700. […] Plasma samples are processed by solvent deproteinization.
# This study was requested by the FDA as part of the pre-clinical testing of po IPdR prior to IND submission. […] Thus, the PK profile for po IPdR appears quite similar in mice and rats.
# [3] = set-up: species or system ferret; conditions: in vivo
# high-grade gliomas = experiment: Predicted clinical use of IPdR + RT (+TMZ); assay type: in vivo, human
# Text: Dysregulation of other DNA repair pathways, including both MMR and BER, are reported to contribute to the aggressive biology and poor prognosis of high-grade gliomas. In a recent comprehensive analysis of the messenger ribonucleic acid (mRNA) expression levels in 157 DNA repair genes in two large, publically available, gene expression data sets from 699 GBM tumors, the expression levels of a key BER glycolylase (APE1) and a key MMR protein (PMS2) were reported to be independent prognostic biomarkers of survival following treatment with RT alone or TMZ alone. Based on this novel DNA repair prognostic index for GBM and other high-grade gliomas, future clinical studies of the use of RT+IPdR would stratify for specific molecular subsets of high-grade gliomas with intact MGMT (i.e. unmethylated promoter) and deficient MMR. […] In both clinical scenarios, the enhanced IPdR-mediated radiosensitization would be predicted to improve the duration of survival by 50%, as reflected in the early trials of ci IUdR+RT (Table 1).
# The patient will initially undergo maximal surgical resection, with a goal of <5% residual disease (the infiltrative nature of high-grade gliomas dictates this goal). […] The patient will continue TMZ and IPdR throughout the course of RT.
# [4] = system: locally advanced rectal cancer; experiment: Predicted clinical use of po IPdR + RT + capecitabine; assay type: in vivo, human; conditions: po IPdR added to RT+capecitabine
# Text: The biochemical and cellular interactions of RT+FP are felt to result from inhibition of the enzyme, thymidylate synthetase (TS) by the FP monophosphate metabolite, FdUMP, leading to decreased (or unbalanced) nucleotide pools necessary for DNA synthesis and decreased DNA repair following RT damage. […] The clinical and PK data from this ongoing clinical trial will be used in the design of a future Phase II clinical trial of IPdR+RT+twice daily po capecitabine as pre-operative therapy in patients with locally advanced rectal cancer.
# The patient will continue to take oral IPdR in addition to capecitabine therapy throughout the course of RT, and will discontinue IPdR and capecitabine following completion of RT.
# [5] = system: locally advanced pancreas cancer; experiment: Predicted clinical use of IPdR + gemcitabine + RT; assay type: in vivo, human; conditions: from 40%
# Text: The patient will continue to take oral IPdR in addition to receiving gemcitabine therapy throughout the course of RT, and will discontinue IPdR following completion of RT.
# chordoma = experiment: Predicted clinical use of IPdR + proton therapy; assay type: in vivo, human; conditions: IPdR added to PT
# Text: The patient will continue to take oral IPdR throughout the course of PT, and will discontinue IPdR following completion of PT.
# PT as a modality of RT is gaining popularity as it allows delivery of higher doses of IR with equivalent or less toxicity (i.e. the TI of PT is higher than that of conventional RT). The use of PT, however, is limited by availability (limited number of PT centers), feasibility (logistics involved in the administration of PT formidable), and the cost (cost of PT is, on average, 3-5 times the cost of conventional RT).
# [6] = in vivo
# Text: It has been previously reported that kinetically distinct forms of aldehyde oxidase exist in male and female rodent liver, and that these distinct forms occur as a result of differences in redox state and not in cDNA sequencing. […] A high degree of homology exists between mouse and human aldehyde oxidase.
# [7] = system: cellular DNA of HCT-116, HT-29, U251 xenografts, bone marrow, intestine, liver
# Description: After fixing the single-cell suspension with 70% ethanol in normal saline, the DNA is partially denatured with 2N HCl and subsequently reacted with a mouse anti-IUdR monoclonal antibody (Becton-Dickinson) followed by incubation with a fluorescein isothiocyanate-labeled goat anti-mouse secondary antibody. Finally, the nuclei are incubated with propidium iodide (PI) to label the DNA. Flow cytometric analysis is performed using two color analysis with emissions of fluorescein isothiocyanate detected with 530 nm short pass filters and PI detected with 630 nm long pass filters. In various embodiments, a minimum of 10,000 events is analyzed per sample, and the percentage of labeled cells is calculated.
# Subsequently, single cells are disrupted and the DNA is enzymatically digested into free nucleosides. DNA extraction and digestion are performed by incubation with 10% trichloroacetic acid, followed by RNA digestion in 0.25M NaOH and enzymatic digestion with DNA-ase, alkaline phosphate and phosphodiesterase in MgCl and potassium phosphate buffer. A Waters 600E solvent delivery system on a 3.9×300 mm μ Bondapak reverse-phase column (Waters Corp, Milford, Mass.) is used. The mobile phase consists of 100 mm of sodium acetate buffer (pH 5.45) plus 7% (v/v) acetonitrile. Peak identification and quantitation of IUdR and thymidine (TdR) are performed against authentic nucleoside standards. The % IUdR-DNA replacement (or % TdR replacement) is calculated according to:
# [8] = system: herpes simplex virus-infected HeLa cells; conditions: cited from earlier work
# IPdR aldehyde oxidase = conditions: intestine, bone marrow, lung and kidney; cited from earlier work
# [9] = cited from earlier work
# [10] = Plasma pharmacokinetics of po IPdR in athymic mice
# Description: These nucleoside analogs are extracted from the plasma by the addition of 5-chloro-2′-deoxyuridine (internal standard) and acetonitrile. The samples are redissolved in deionized water for HPLC analysis using a Spectra-Physics P2000 pump and UV2000 detection (Spectra-Physics Analytical, Fremont, Calif.) on a 3.9×300 mm μ Bondapak C18 reverse phase column (Waters Associates, Milford, Mass.). […] Plasma samples are processed by solvent deproteinization. […] All solvents should be high-pressure liquid chromatography (HPLC) grade.
# human cancer cell models = experiment: IUdR+MX in experimental human cancer cell models; assay type: cell-based
# Text: BER processing typically leads to chemotherapy drug and IR resistance. Consequently, the recognition and detection of BER-deficient cancers and/or the development of chemical inhibitors of specific BER enzymes can reverse alkylating and anti-metabolite drug resistance, as well as IR resistance. Based in part on the pre-clinical results from Dr. Kinsella's lab, methoxyamine (MX), a chemical inhibitor of BER, is currently undergoing clinical testing as TRC-102 in combination with chemotherapy drugs including temozolomide. MX is a small organic amine derivative of alkoxyamine that blocks the short patch BER pathway by covalently binding the AP site formed by a specific glycosylase, rendering it refractory to the catalytic activity of AP endonuclease 1. A MX-bound AP site is repaired much more slowly (>300×) than a normal AP site, and enhances cell death.
# AP site = conditions: cited from earlier work
# [11] = human colorectal and glioblastoma xenografts
# [12] = IPdR+TMZ+RT, MGMT promoter methylated GBM
compound,measurement,setting,value
O=c1ncc(I)cn1[C@H]1C[C@H](O)[C@@H](CO)O1 [IPdR],tolerated dose,in vivo,up to 1 g/kg/d
same,enhancement of response to RT with po IPdR,[1]; [11],IUdR. 1.3-1.5 fold
same,calculated SER for po IPdR,"[1]; mouse, in vivo, po",1.3-1.5
same,Cmax values for IPdR with increasing dose,[2]; 0.2 or 1.0 gm/kg/day,less than dose proportional
same,IUdR AUC values vs dose,[2]; after po IPdR,proportional with increasing dose
same,time of peak IUdR concentrations,[2]; after po IPdR dosing,≤ 15 min
same,mean half-life for IUdR,"[2]; females, after po IPdR",8 h
same,mean elimination half-life for IPdR,[2]; highest dose,~5 h
same,mean half-life for IUdR,"[2]; males, after po IPdR",6 h
same,absorption of po IPdR,"[2]; rat, in vivo, po","not dependent on sex, dose, or single (Day 1) versus multiple daily dosings (Day 28)"
same,time of maximal concentrations of IPdR,[2]; single doses of 1.0 gm/kg/day,90 min
same,AUC values for IPdR after 28 days,[2]; vs Day 1,less than those observed after Day 1
same,"blood cell counts, liver function tests, kidney function tests, urinalysis",[3],No significant abnormalities
same,gross findings at complete necropsy,[3],no anatomic lesions
same,"hematologic, biochemical, or histopathologic changes",[3],"no significant hematologic,"
same,histology of CNS tissues,[3],No histological changes
same,kidney and uterus weights,[3],decreased
same,liver weights,[3],increased
same,microscopic changes in liver,[3],minimal to moderate cytoplasmic vacuolation of hepatocytes
same,weight loss at highest dose,[3],species. Noted mild weight
same,predicted prolongation of survival,high-grade gliomas; [12],up to 70%
same,predicted survival,high-grade gliomas; [12],24 months
same,predicted improvement of duration of survival,high-grade gliomas; RT+IPdR or RT+IPdR+TMZ,50%
same,further improvement in DFS,[4],10-15%
same,postulated pCR rate,[4]; from 10-15%,30-35%
same,expected percentage of patients achieving R0-resection,[5],> 60%
same,predicted increase of the TI of the IR,chordoma,up to 1.5 ×
same,clearance from plasma,[6],rapidly cleared from plasma in a bi-exponential fashion
same,LD50,"IPdR, one dose/day×14-28 days",never reached
same,TI of IPdR in animals,LD50/ED50,∞
same,deaths,"very high doses, one dose/day×14-28 days",no deaths were seen
same,radiosensitization compared to continuous infusion IUdR,[7]; % IUdR-DNA incorporation as surrogate,more effective radiosensitizer
same,increase in % IUdR-DNA cellular incorporation in tumor vs MTD of po IUdR,"[7]; IPdR 1 g/kg/d for 6 days, HCT-116",2-3 fold
same,"IUdR-DNA incorporation in tumors, po IPdR vs ci IUdR",[7]; [11],Increased IUdR-DNA
same,"increase in % IUdR-DNA tumor cell incorporation, po IPdR compared to ci IUdR","[7]; human tumor xenografts, MTD schedules of IUdR",2-3 fold and 2 fold
same,"IUdR-DNA incorporation in normal tissues, po IPdR vs ci IUdR","[7]; mouse, in vivo, po",decreased in normal
same,"decrease in % IUdR-DNA incorporation in bone marrow and intestine, po IPdR compared to ci IUdR","[7]; mouse, in vivo, po",2 fold and 2-3 fold
same,"less % IUdR-DNA incorporation in bone marrow and intestine, po IPdR vs po IUdR","[7]; mouse, in vivo, po",≥ 2 fold
same,"% IUdR-DNA incorporation, liver tumor metastases vs sc tumor","[7]; po IPdR, HCT-116",no differential effect
same,normal tissue systemic toxicities compared to continuous infusion IUdR,"[7]; weight loss, myelosuppression",less normal tissue systemic toxicities
same,toxicity to uninfected cells or mice,[8],without toxicity
same,antiviral activity,[8]; in vitro and in vivo following po administration,significant activity
same,activity of IPdR aldehyde oxidase in other normal tissues vs liver,IPdR aldehyde oxidase,10 fold less
same,plasma concentrations of IUdR vs oral dose of IPdR,[9]; 150 mg to 2400 mg,generally increased
same,peak IUdR plasma levels,"[9]; IPdR 2400 mg po, 6 patients",4.0 ± 1.02 µmol/L
same,IUdR half-life,[9]; IPdR 2400 mg po,1.5 h
same,time IUdR plasma levels remained above 1 umol/L,[9]; IPdR 2400 mg po,3 to 4 h
same,time to peak IUdR plasma levels,[9]; IPdR 2400 mg po,1.67 ± 1.21 h
same,toxicities,[9]; po IPdR 150 mg-2400 mg,No toxicities.
same,IUdR levels decreasing over 8 hours to,[9]; po IPdR dose of 2400 mg,1 µM
same,duration of peak plasma levels of IUdR,[9]; po IPdR dose of 2400 mg,4 h
same,peak plasma levels of IUdR,[9]; po IPdR dose of 2400 mg,> 4 µM
same,transient plasma levels of IUdR,[9]; po IPdR,up to 4 μMol/L
same,adverse events (NCI Common Toxicity Criteria version 4.0),"[9]; single po dose 150-2400 mg, 10 patients",no drug-related adverse events
same,peak plasma levels of IUdR,[10]; bolus 250 mg/kg IPdR po,up to 45 μM
same,time to peak plasma levels of IUdR,[10]; bolus 250 mg/kg IPdR po,≤ 15 min
same,plasma levels of IPdR at 45 and 90 min,[10]; po 1500 mg/kg,remain elevated
same,time to peak plasma level of IPdR,[10]; po IPdR bolus,10 to 20 min
same,time to peak plasma level of IUdR,[10]; po IPdR bolus,10 to 20 min
same,time to peak plasma level of metabolite IP,[10]; po bolus of IPdR,45 to 90 min
same,time to peak plasma level of metabolite IU,[10]; po bolus of IPdR,45 to 90 min
"CON [MX, methoxyamine]",effect of IUdR+MX on % IUdR-DNA incorporation and radiosensitization,human cancer cell models,enhances
same,slower repair of MX-bound AP site than normal AP site,AP site,> 300 ×

# — patent US11058702B2 (EMEK, Inc., priority 2014, dated 2021)
